Where two headings read alike, the source gives them in different places.
Legend:
HIS-TGFβR1 T204D = target: T1, HIS-TGFβR1 T204D (Homo sapiens, UniProt P36897, T204D); test: HTRF probe-displacement assay, HIS-TGFβR1 T204D; type: binding; settings: read-out: TGFβR1 (μM) IC50
T1 sequence (P36897 34-503 T204D): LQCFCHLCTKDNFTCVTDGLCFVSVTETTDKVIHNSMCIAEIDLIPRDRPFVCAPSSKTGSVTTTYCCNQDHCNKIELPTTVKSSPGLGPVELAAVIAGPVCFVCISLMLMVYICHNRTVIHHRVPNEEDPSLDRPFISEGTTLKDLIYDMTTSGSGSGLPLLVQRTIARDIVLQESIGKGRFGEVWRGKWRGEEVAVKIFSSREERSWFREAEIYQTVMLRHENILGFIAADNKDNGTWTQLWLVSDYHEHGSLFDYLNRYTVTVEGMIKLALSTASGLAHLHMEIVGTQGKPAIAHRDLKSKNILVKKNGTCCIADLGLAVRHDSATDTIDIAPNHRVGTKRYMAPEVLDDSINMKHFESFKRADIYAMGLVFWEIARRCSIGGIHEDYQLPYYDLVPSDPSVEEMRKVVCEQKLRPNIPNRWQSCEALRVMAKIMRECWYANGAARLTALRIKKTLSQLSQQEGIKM

HIS-TGFβR2 WT = HIS-TGFβR2 WT (Homo sapiens, UniProt P37173); test: HTRF probe-displacement assay, HIS-TGFβR2 WT; type: binding
Sequence of HIS-TGFβR2 WT (P37173 23-567): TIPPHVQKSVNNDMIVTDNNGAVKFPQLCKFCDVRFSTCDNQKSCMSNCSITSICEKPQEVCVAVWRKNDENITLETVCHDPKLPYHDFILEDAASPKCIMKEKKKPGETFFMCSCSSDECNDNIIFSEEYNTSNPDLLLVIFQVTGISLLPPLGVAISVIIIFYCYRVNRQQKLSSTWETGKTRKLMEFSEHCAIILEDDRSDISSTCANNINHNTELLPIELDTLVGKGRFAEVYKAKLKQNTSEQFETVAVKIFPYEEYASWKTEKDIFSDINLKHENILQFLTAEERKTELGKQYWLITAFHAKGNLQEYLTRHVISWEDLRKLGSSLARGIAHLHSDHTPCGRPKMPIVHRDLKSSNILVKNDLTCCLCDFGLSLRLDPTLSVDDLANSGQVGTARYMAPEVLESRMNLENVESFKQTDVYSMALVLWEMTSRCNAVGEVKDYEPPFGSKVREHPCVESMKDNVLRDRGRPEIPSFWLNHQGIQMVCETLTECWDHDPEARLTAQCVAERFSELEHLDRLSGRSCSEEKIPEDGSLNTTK

| SMILES | IC50 (HIS-TGFβR1 T204D) | IC50 (HIS-TGFβR2 WT) | IC50 (HIS-TGFβR1 T204D; 1 nM HIS-TGFβR1 T204D, labeled probe at Kd, 1 hour room temperature, eleven concentrations) |
| --- | --- | --- | --- |
| CC(=O)Nc1cc(-c2[nH]c3c([C@@H](C)O)ccnc3c2-c2cccc(C(F)F)n2)ccn1 (single isomer, unassigned) [Example 146] | 0.001 µM | 1.78 µM |  |
| COc1cccc(-c2c(-c3ccnc(NC(C)=O)c3)[nH]c3cccnc23)n1 [Example 2, N-{4-[3-(6-Methoxypyridin-2-yl)-1H-pyrrolo[3,2-b]pyridin-2-yl]pyridin-2-yl}acetamide] | 0.006 µM | 7.85 µM |  |
| CC(=O)Nc1cc(-c2[nH]c3cccnc3c2-c2ccc(Cl)nc2)ccn1 [Example 9, N-{4-[3-(6-Chloropyridin-3-yl)-1H-pyrrolo[3,2-b]pyridin-2-yl]pyridin-2-yl}acetamide] | 0.023 µM | 0.33 µM |  |
| CC(=O)Nc1cc(-c2[nH]c3cccnc3c2-c2cnc(F)c(C)c2)ccn1 [Example 11, N-{4-[3-(6-Fluoro-5-methylpyridin-3-yl)-1H-pyrrolo[3,2-b]pyridin-2-yl]pyridin-2-yl}acetamide] | 0.027 µM | 0.009 µM |  |
| CC(=O)Nc1cc(-c2[nH]c3cccnc3c2-c2ccc(C(F)(F)F)nc2)ccn1 [Example 13, N-(4-{3-[6-(Trifluoromethyl)pyridin-3-yl]-1H-pyrrolo[3,2-b]pyridin-2-yl}pyridin-2-yl)acetamide] | 0.002 µM | > 15 µM |  |
| CC(=O)Nc1cc(-c2[nH]c3cccnc3c2-c2cccc(F)n2)ccn1 [Example 16, N-{4-[3-(6-Fluoropyridin-2-yl)-1H-pyrrolo[3,2-b]pyridin-2-yl]pyridin-2-yl}acetamide] | 0.002 µM | 0.087 µM |  |
| CC(=O)Nc1cc(-c2[nH]c3cccnc3c2-c2ccc3cnccc3c2)ccn1 [Example 17, N-{4-[3-(Isoquinolin-6-yl)-1H-pyrrolo[3,2-b]pyridin-2-yl]pyridin-2-yl}acetamide] | 0.014 µM | > 15 µM |  |
| CC(=O)Nc1cc(-c2[nH]c3cccnc3c2-c2cccc3ccncc23)ccn1 [Example 19, N-{4-[3-(Isoquinolin-8-yl)-1H-pyrrolo[3,2-b]pyridin-2-yl]pyridin-2-yl}acetamide] | 0.023 µM | 0.19 µM |  |
| CC(=O)Nc1cc(-c2[nH]c3cccnc3c2-c2ccc3[nH]ccc3c2)ccn1 [Example 20, N-{4-[3-(1H-Indol-5-yl)-1H-pyrrolo[3,2-b]pyridin-2-yl]pyridin-2-yl}acetamide] | 0.005 µM | 1.69 µM |  |
| CC(=O)Nc1cc(-c2[nH]c3cccnc3c2-c2ccc(F)c(C)n2)ccn1 [Example 23, N-{4-[3-(5-Fluoro-6-methylpyridin-2-yl)-1H-pyrrolo[3,2-b]pyridin-2-yl]pyridin-2-yl}acetamide] | 0.003 µM | 0.68 µM |  |
| CCc1ccnc(-c2c(-c3ccnc(NC(C)=O)c3)[nH]c3cccnc23)c1 [Example 29, N-{4-[3-(4-Ethylpyridin-2-yl)-1H-pyrrolo[3,2-b]pyridin-2-yl]pyridin-2-yl}acetamide] | 0.017 µM | > 15 µM |  |
| CC(=O)Nc1cc(-c2[nH]c3cc(OC4COC4)cnc3c2-c2cccc(C(F)F)n2)ccn1 [Example 99, N-(4-(3-(6-(Difluoromethyl)pyridin-2-yl)-6-(oxetan-3-yloxy)-1H-pyrrolo[3,2-b]pyridin-2-yl)pyridin-2-yl)acetamide] |  | 2.75 µM |  |
| CCOc1cnc2c(-c3cccc(C(F)F)n3)c(-c3ccnc(NC(C)=O)c3)[nH]c2c1 [Example 101, N-(4-(3-(6-(Difluoromethyl)pyridin-2-yl)-6-ethoxy-1H-pyrrolo[3,2-b]pyridin-2-yl)pyridin-2-yl)acetamide] |  | 4.29 µM |  |
| CCc1ccnc2c(-c3cccc(C(F)F)n3)c(-c3ccnc(NC(C)=O)c3)[nH]c12 [Example 128, N-(4-{3-[6-(Difluoromethyl)pyridin-2-yl]-7-ethyl-1H-pyrrolo[3,2-b]pyridin-2-yl}pyridin-2-yl)acetamide] |  | 5.26 µM |  |
| CC(=O)Nc1cc(-c2[nH]c3cc(Cl)cnc3c2-c2csc(C)n2)ccn1 [Example 181, N-(4-(6-Chloro-3-(2-methylthiazol-4-yl)-1H-pyrrolo[3,2-b]pyridin-2-yl)pyridin-2-yl)acetamide] |  | 1.07 µM |  |
| COc1ccnc2c(-c3nc(C(F)F)cs3)c(-c3ccnc(NC(C)=O)c3)[nH]c12 [Example 270, N-(4-(3-(4-(Difluoromethyl)thiazol-2-yl)-7-methoxy-1H-pyrrolo[3,2-b]pyridin-2-yl)pyridin-2-yl)acetamide] |  | 7.55 µM |  |

Next, values leading:

| IC50 (HIS-TGFβR1 T204D) | IC50 (HIS-TGFβR2 WT) | IC50 (HIS-TGFβR1 T204D; 1 nM HIS-TGFβR1 T204D, labeled probe at Kd, 1 hour room temperature, eleven concentrations) | SMILES |
| --- | --- | --- | --- |
| 0.002 µM | 0.75 µM |  | CC(=O)Nc1cc(-c2[nH]c3c([C@H](C)O)ccnc3c2-c2cccc(C(F)F)n2)ccn1 (single isomer, unassigned) [Example 147] |
| 0.001 µM | 0.089 µM |  | CC(=O)Nc1cc(-c2[nH]c3cccnc3c2-c2cccc(Cl)n2)ccn1 [Example 3, N-{4-[3-(6-Chloropyridin-2-yl)-1H-pyrrolo[3,2-b]pyridin-2-yl]pyridin-2-yl}acetamide] |
| 0.009 µM | 2.03 µM |  | CC(=O)Nc1cc(-c2[nH]c3cccnc3c2-c2ncccn2)ccn1 [Example 8, N-{4-[3-(Pyrimidin-2-yl)-1H-pyrrolo[3,2-b]pyridin-2-yl]pyridin-2-yl}acetamide] |
| 0.057 µM | 0.01 µM |  | CC(=O)Nc1cc(-c2[nH]c3cccnc3c2-c2cnc(F)c(F)c2)ccn1 [Example 10, N-{4-[3-(5,6-Difluoropyridin-3-yl)-1H-pyrrolo[3,2-b]pyridin-2-yl]pyridin-2-yl}acetamide] |
| 0.058 µM | 1.31 µM |  | CC(=O)Nc1cc(-c2[nH]c3cccnc3c2-c2ccc(C#N)nc2)ccn1 [Example 12, N-{4-[3-(6-Cyanopyridin-3-yl)-1H-pyrrolo[3,2-b]pyridin-2-yl]pyridin-2-yl}acetamide] |
| 0.017 µM | 13.1 µM |  | CC(=O)Nc1cc(-c2[nH]c3cccnc3c2-c2cccc(C#N)n2)ccn1 [Example 15, N-{4-[3-(6-Cyanopyridin-2-yl)-1H-pyrrolo[3,2-b]pyridin-2-yl]pyridin-2-yl}acetamide] |
| 1.49 µM | > 15 µM |  | CC(=O)Nc1cc(-c2[nH]c3cccnc3c2-c2cccc3cccnc23)ccn1 [Example 21, N-{4-[3-(Quinolin-8-yl)-1H-pyrrolo[3,2-b]pyridin-2-yl]pyridin-2-yl}acetamide] |
| 0.039 µM | > 15 µM |  | CC(=O)Nc1cc(-c2[nH]c3cccnc3c2-c2ccc3ncccc3c2)ccn1 [Example 22, N-{4-[3-(Quinolin-6-yl)-1H-pyrrolo[3,2-b]pyridin-2-yl]pyridin-2-yl}acetamide] |
| 0.018 µM | 0.21 µM |  | CC(=O)Nc1cc(-c2[nH]c3cccnc3c2-c2cc(C)c(F)cn2)ccn1 [Example 24, N-{4-[3-(5-Fluoro-4-methylpyridin-2-yl)-1H-pyrrolo[3,2-b]pyridin-2-yl]pyridin-2-yl}acetamide] |
| 0.72 µM | > 15 µM |  | COc1ncc(-c2c(-c3ccnc(NC(C)=O)c3)[nH]c3cccnc23)cn1 [Example 27, N-{4-[3-(2-Methoxypyrimidin-5-yl)-1H-pyrrolo[3,2-b]pyridin-2-yl]pyridin-2-yl}acetamide] |
| 0.2 µM | 6.05 µM |  | COc1ccnc(-c2c(-c3ccnc(NC(C)=O)c3)[nH]c3cccnc23)c1 [Example 28, N-{4-[3-(4-Methoxypyridin-2-yl)-1H-pyrrolo[3,2-b]pyridin-2-yl]pyridin-2-yl}acetamide] |
|  | 2.62 µM |  | [2H]C([2H])([2H])Oc1cnc2c(-c3cccc(C(F)F)n3)c(-c3ccnc(NC(C)=O)c3)[nH]c2c1 [Example 100, N-(4-(3-(6-(Difluoromethyl)pyridin-2-yl)-6-(methoxy-d3)-1H-pyrrolo[3,2-b]pyridin-2-yl)pyridin-2-yl)acetamide] |
|  | 3.45 µM |  | CC(=O)Nc1cc(-c2[nH]c3cc(OC(C)C)cnc3c2-c2cccc(C(F)F)n2)ccn1 [Example 102, N-(4-(3-(6-(Difluoromethyl)pyridin-2-yl)-6-isopropoxy-1H-pyrrolo[3,2-b]pyridin-2-yl)pyridin-2-yl)acetamide] |
|  | 4.92 µM |  | COCC(C)Oc1cnc2c(-c3cccc(C(F)F)n3)c(-c3ccnc(NC(C)=O)c3)[nH]c2c1 (centres unmarked) [Example 103] |
|  |  | 0.003 µM | [2H]C([2H])([2H])Oc1ccc(-c2c(-c3ccnc(NC(C)=O)c3)[nH]c3cc(F)cnc23)nc1 [Example 106, N-(4-(6-Fluoro-3-(5-(methoxy-d3)pyridin-2-yl)-1H-pyrrolo[3,2-b]pyridin-2-yl)pyridin-2-yl)acetamide] |
|  | 5.65 µM |  | CC(=O)Nc1cc(-c2[nH]c3cc(F)cnc3c2-c2csc(C)n2)ccn1 [Example 207, N-(4-(6-Fluoro-3-(2-methylthiazol-4-yl)-1H-pyrrolo[3,2-b]pyridin-2-yl)pyridin-2-yl)acetamide] |
|  | 4.24 µM |  | COc1cnc2c(-c3csc(C#N)n3)c(-c3ccnc(NC(C)=O)c3)[nH]c2c1 [Example 228, N-(4-(3-(2-Cyanothiazol-4-yl)-6-methoxy-1H-pyrrolo[3,2-b]pyridin-2-yl)pyridin-2-yl)acetamide] |
|  | 1.36 µM |  | COc1ccnc2c(-c3cccc(F)n3)c(-c3ccnc(NC(C)=O)c3)[nH]c12 [Example 273, N-(4-(3-(6-Fluoropyridin-2-yl)-7-methoxy-1H-pyrrolo[3,2-b]pyridin-2-yl)pyridin-2-yl)acetamide] |

— patent publication US9708316B2 (BRISTOL-MYERS SQUIBB COMPANY, priority 2014, dated 2017)
